Measurements: patent US20240269299A1, “POLYETHYLENE GLYCOL-DRUG CONJUGATE AND USE THEREOF” (CHONGQING UPGRA BIOTECHNOLOGY CO. LTD., priority 2021, published 2024)

System: choroidal neovascularization (CNV)
Test: Laser modeling of choroidal neovascularization (CNV) in mice
Format: in vivo, C57BL/6J suckling mice
Conditions: 1 μL injected into vitreous space one week after photocoagulation
Procedure: Experimental animals: C57BL/6J suckling mice, where the mice were all female and subjected to laser modeling three days after birth.
A mixed solution of 20% V/V PEG300, 20% V/V anhydrous ethanol and 60% V/V normal saline was used as a solvent for compound 39-205 to prepare a 20 mg/mL solution for use in mice No. 6 and No. 7, respectively. A saline solution of aflibercept was used as a positive control for mouse No. 5.
After the mice were anesthetized, a semiconductor laser was used to perform retinal photocoagulation around optic discs under a retinoscope. An irradiation site was between blood vessels that were one optic disc diameter away from the optic disc. The generation of bubbles after photocoagulation was an indicator of breaking Bruch's membrane. The laser modeling conditions for mice No. 6 and No. 7 were 350 mw and 200 ms, and the laser modeling conditions for mouse No. 5 were 300 mw, 260 ms, and the photocoagulation time was 1 s. One week after photocoagulation, medication treatments started for the mice. The administration method was: 1 μL of each of the 20 mg/mL solution of compound 39-205 prepared above and a normal saline solution of aflibercept was injected into vitreous space.

aflibercept
area of the laser spot after administration (compound 39-205 as 20 mg/mL solution, aflibercept in normal saline, FIG. 1 to FIG. 4): did not significantly reduce
fundus angiography after administration (mouse No. 5, FIG. 1): not significantly improved
